The target in one experiment is T1, human PRMT1 (Homo sapiens, UniProt Q99873).
T1 construct: GST-tagged PRMT1; made in house; host or cells: High Five insect cells (baculovirus)
The experiment is described as follows: PRMT1 Biochemical Assay (3H-SAM Flashplate, peptide substrate). Conditions: single experiment or average of multiple experiments. An outline of the steps:
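GST-tagged PRMT1 from baculovirus-infected cells, preincubated with compounds 30 min at room temperature in 20 mM Bicine pH 7.6, 1 mM TCEP, 0.005% BSG, 0.002% Tween 20. Reaction started with ³H-SAM plus biotinylated peptide, stopped with 300 µM cold SAM.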

For another experiment, the target named is T2, human PRMT6 (Homo sapiens, UniProt Q96LA8).
T2 construct: Flag-PRMT6-His; made in house; host or cells: HEK 293F cells (BacMam baculovirus)
The experiment can be described thus: PRMT6 Biochemical Assay (3H-SAM Flashplate, peptide substrate). Conditions: Biochemical IC50 PRMT6, single experiment or average of multiple experiments. An outline of the steps: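 Methylation of a biotin-tagged H4 (36-50) peptide by ³H-SAM was quantified by streptavidin Flashplate capture and scintillation counts (dpm/cpm). Before SAM/peptide addition, Flag-PRMT6-His was preincubated with compound for 30 min at room temperature in Bicine buffer, pH 7.6.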

SMILES strings stand for the structures.

T1 sequence (Q99873 with tags, fused parts or gaps): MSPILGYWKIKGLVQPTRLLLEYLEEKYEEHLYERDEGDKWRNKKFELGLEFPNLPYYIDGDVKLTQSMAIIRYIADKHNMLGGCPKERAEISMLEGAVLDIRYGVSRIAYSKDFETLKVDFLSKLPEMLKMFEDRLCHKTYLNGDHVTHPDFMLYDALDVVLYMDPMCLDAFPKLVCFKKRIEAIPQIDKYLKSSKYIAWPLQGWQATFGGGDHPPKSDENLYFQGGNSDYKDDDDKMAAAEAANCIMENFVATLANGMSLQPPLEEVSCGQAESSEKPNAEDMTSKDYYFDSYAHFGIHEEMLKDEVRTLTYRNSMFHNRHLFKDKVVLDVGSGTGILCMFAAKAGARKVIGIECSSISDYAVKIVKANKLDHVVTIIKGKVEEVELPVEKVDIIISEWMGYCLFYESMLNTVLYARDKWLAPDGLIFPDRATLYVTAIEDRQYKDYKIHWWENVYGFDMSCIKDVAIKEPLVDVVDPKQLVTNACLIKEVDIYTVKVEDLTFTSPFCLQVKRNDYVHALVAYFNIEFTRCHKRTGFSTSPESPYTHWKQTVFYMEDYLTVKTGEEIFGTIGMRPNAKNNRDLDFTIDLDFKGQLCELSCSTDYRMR
T2 sequence (Q96LA8 with tags, fused parts or gaps): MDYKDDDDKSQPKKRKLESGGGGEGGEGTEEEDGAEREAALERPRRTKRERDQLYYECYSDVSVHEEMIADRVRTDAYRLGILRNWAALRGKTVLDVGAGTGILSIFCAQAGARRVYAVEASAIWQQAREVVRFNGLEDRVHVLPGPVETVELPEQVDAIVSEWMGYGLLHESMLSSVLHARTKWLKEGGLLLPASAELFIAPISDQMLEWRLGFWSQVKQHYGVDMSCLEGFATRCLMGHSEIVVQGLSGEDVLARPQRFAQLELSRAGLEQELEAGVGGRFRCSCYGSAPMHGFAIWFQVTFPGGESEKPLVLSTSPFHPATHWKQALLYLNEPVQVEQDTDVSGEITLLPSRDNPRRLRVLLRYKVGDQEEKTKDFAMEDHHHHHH

Take `CNCCN(C)Cc1cnn(C2CCCC2)c1-c1ccc(OC(C)C)cc1` [Compound 255]: the IC50 turned out to be 16.8 nM on human PRMT1 and 75.1 nM on human PRMT6.
`CNCCN(C)Cc1cn(C2CCCCC2)nc1-c1ccc(OC(C)C)cc1` [Compound 256]: the half-inhibitory concentration (IC50) at human PRMT1 is 132 nM; on human PRMT6, 921 nM.
For the molecule `C=C(C)C(=O)Nc1cccc(-c2[nH]ncc2CN(C)CCNC)c1` [Compound 257], the IC50 against human PRMT1 came to 135 nM; at human PRMT6, 213 nM.
The corresponding values for `C=CC(=O)Nc1cccc(-c2[nH]ncc2CN(C)CCNC)c1` [Compound 258] are 43.9 nM and 173 nM.
On to `CN(CCN)Cc1c[nH]nc1-c1ccc(Oc2ccccc2F)cc1` [Compound 259], for which the IC50 against human PRMT1 is 1.32 nM; against human PRMT6, 0.8 nM.
On to `CNCCN(C)Cc1c[nH]nc1-c1cc(OC(C)C)cc(C(C)C)c1` [Compound 260], for which the IC50 against human PRMT1 turned out to be 23.9 nM; against human PRMT6, 243 nM.
The corresponding values for `CNCCN(C)Cc1c[nH]nc1-c1ccc(Oc2cccc(C#N)c2)cc1` [Compound 261] are 2.94 nM and 2.44 nM.
As to `CNCCN(C)Cc1c[nH]nc1-c1ccc(Oc2cccc(C(C)C)c2)cc1` [Compound 262], the IC50 against human PRMT1 came to 5.63 nM; against human PRMT6, 1.46 nM.
`CNCCN(C)Cc1c[nH]nc1-c1cc(Cl)c(OC(C)C)c(Cl)c1` [Compound 265, N^1-((3-(3,5-dichloro-4-isopropoxyphenyl)-1H-pyrazol-4-yl)methyl)-N^1,N^2-dimethylethane-1,2-diamine]: the values for the concentration for half-maximal inhibition (IC50) on human PRMT1 and against human PRMT6 were 5.67 nM and 15.7 nM, respectively.
The corresponding values for `CNCCN(C)Cc1nn(C)cc1-c1ccc(OCCCOC)cc1` [Compound 266] are 176 nM and 33 nM.
Regarding `CNCCN(C)Cc1n[nH]cc1-c1ccc(Oc2cccc(C#N)c2)cc1` [Compound 267], the IC50 at human PRMT1 was 3.47 nM; at human PRMT6, 1.56 nM.
As to `CNCCN(C)Cc1n[nH]cc1-c1ccc(Oc2cccc(C(=O)NC)c2)cc1` [Compound 268], the IC50 at human PRMT1 turned out to be 4.58 nM; against human PRMT6 it was 2 nM.
The corresponding values for `CNCCN(C)Cc1n[nH]cc1-c1ccc(Oc2cccc(F)c2)cc1` [Compound 270] are 2.79 nM and 1.24 nM.
The corresponding values for `CNCCN(C)Cc1n[nH]cc1-c1cc(CC(C)C)cc(CC(C)C)c1` [Compound 271] are 52.4 nM and 864 nM.
The corresponding values for `CNCCN(C)Cc1n[nH]cc1-c1cc(OC(C)C)cc(C(C)C)c1` [Compound 272] are 156 nM and over 1000 nM.
As for `CNCCN(C)Cc1n[nH]cc1-c1cc(Cl)c(OC(C)C)c(Cl)c1` [Compound 273], the results for the IC50 on human PRMT1 and against human PRMT6 were 8.56 nM and 31.6 nM, respectively.
The corresponding values for `CNCCN(C)Cc1c[nH]nc1-c1ccc(Oc2ccccc2C(=O)NC)cc1` [Compound 274] are 19.3 nM and 7.57 nM.
The corresponding values for `CNCCN(C)Cc1n[nH]c(C)c1-c1ccc(OC(C)C)cc1` [Compound 275] are 8.63 nM and 20.9 nM.
`CNCCN(C)Cc1c(-c2ccc(OCCCOC)cc2)cnn1C` [Compound 276]: the IC50 against human PRMT1 and at human PRMT6 was over 1000 nM throughout.
With `CNCCN(C)Cc1n[nH]cc1-c1ccc(Oc2cccc(C(C)C)c2)cc1` [Compound 277], the IC50 against human PRMT1 was 20.2 nM; against human PRMT6, 1.66 nM.
`CNCCN(C)Cc1n[nH]cc1-c1ccc(Oc2ccccc2F)cc1` [Compound 279, N^1-((4-(4-(2-fluorophenoxy)phenyl)-1H-pyrazol-3-yl)methyl)-N^1,N^2-dimethylethane-1,2-diamine]: the IC50 was found to be 3.46 nM against human PRMT1 and 1.87 nM against human PRMT6.
Turning to `CC(C)Cc1cc(-c2n[nH]cc2CN(C)CCN)ccc1F` [Compound 280], the IC50 against human PRMT1 turned out to be 4.3 nM; at human PRMT6, 10.2 nM.
For the molecule `CNCCN(C)Cc1c[nH]nc1-c1cc(CC(C)C)cc(CC(C)C)c1` [Compound 281], the figures for the IC50 against human PRMT1 and against human PRMT6 were 11.2 nM and 241 nM, respectively.
In the case of `CNCCN(C)Cc1c[nH]nc1-c1cc(Cl)c(OCC2CC2)c(Cl)c1` [Compound 282], the 50% inhibitory concentration (IC50) against human PRMT1 was 2.21 nM; on human PRMT6, 4.75 nM.

For the origin of these results see patent US9776972B2, “Pyrazole derivatives as arginine methyltransferase inhibitors and uses thereof” (priority 2013, dated 2017).
